Target: Mitogen-activated protein kinase 1 (Homo sapiens, UniProt P28482)
Test: IMAP-FP Assay: Activated ERK2 activity was determined in an IMAP-FP assay (Molecular Devices).

Chain of Mitogen-activated protein kinase 1 (P28482 whole entry): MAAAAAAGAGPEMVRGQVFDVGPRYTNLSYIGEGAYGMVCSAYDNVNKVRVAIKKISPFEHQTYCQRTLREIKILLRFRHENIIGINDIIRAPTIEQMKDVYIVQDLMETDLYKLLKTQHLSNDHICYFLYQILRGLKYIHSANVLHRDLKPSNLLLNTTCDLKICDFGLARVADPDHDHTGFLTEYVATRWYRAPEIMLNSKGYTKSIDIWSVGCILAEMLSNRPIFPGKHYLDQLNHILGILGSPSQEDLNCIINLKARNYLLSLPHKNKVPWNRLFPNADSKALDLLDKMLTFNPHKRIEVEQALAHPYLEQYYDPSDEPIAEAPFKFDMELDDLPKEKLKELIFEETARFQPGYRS

COC(=O)Nc1n[nH]c2cc(NC(=O)N[C@H](C)c3ccc(Cl)c(OC)c3)ncc12
IC50: 5.2 nM

From ChEMBL document CHEMBL3886473, “Compounds that are ERK inhibitors” (2016)
